Source: patent US8183239B2, “Substituted piperazines and piperidines as modulators of the neuropeptide Y2 receptor” (Janssen Pharmaceutica NV, priority 2005, dated 2012)
Like-named read-outs stand apart in the source and are kept apart here.

Molecular target: T1, Y2 receptors (Homo sapiens, UniProt P49146)
T1 construct: endogenous in cells; host or cells: KAN-Ts cells (membranes)
T1 sequence (P49146 1-381): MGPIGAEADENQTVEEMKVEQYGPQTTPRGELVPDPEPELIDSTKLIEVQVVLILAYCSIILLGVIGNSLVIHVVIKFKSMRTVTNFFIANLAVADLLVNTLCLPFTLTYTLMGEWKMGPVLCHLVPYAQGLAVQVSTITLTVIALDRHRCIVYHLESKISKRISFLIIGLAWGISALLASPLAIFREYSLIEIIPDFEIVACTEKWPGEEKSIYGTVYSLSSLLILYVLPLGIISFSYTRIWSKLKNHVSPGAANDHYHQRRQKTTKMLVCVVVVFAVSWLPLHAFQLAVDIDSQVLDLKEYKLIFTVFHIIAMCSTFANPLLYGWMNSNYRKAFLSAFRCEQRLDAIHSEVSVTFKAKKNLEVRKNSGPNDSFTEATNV
Experiment: Radioligand binding assay ([125I]PYY, KAN-Ts cell membranes)
Conditions: average of results, read-out: IC50
How it was run: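 IC50 values are means of three to eight experiments run in duplicate, fitted sigmoidally against specific binding (defined by […]). Competition used 80 pM [^125I]PYY for 1 h at room temperature on KAN-Ts membranes carrying native Y2, with filtration and scintillation counting.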

SMILES	IC50 (Table 1, [125I]PYY 80 pM) [nM]	IC50 (Table 2, [125I]PYY 80 pM) [nM]
CCN(CC)C(=O)C(c1ccccc1)C1CCN(c2ccc(NC(=O)c3cccnc3SC)cc2F)CC1 (stereo not shown) [Example 141, N-{4-[4-(Diethylcarbamoyl-phenyl-methyl)-piperidin-1-yl]-3-fluoro-phenyl}-2-methylsulfanyl-nicotinamide]	80	–
CCNC(=O)C(c1ccccc1)C1CCN(c2c(F)cc(NC(=O)C(CC)CC)cc2F)CC1 (stereo not shown) [Example 142, 2-Ethyl-N-{4-[4-(ethylcarbamoyl-phenyl-methyl)-piperidin-1-yl]-3,5-difluoro-phenyl}-butyramide]	75	–
CCN(CC)C(=O)C(c1ccccc1)N1CCN(c2ccc(NC(=O)C3CCCC3)cc2F)CC1 (stereo not shown) [Example 143, Cyclopentanecarboxylic acid {4-[4-(diethylcarbamoyl-phenyl-methyl)-piperazin-1-yl]-3-fluoro-phenyl}-amide]	80	–
CCN(CC)C(=O)C(c1ccccc1)C1CCN(c2ccc(NC(=O)c3ccsc3C)cc2F)CC1 (stereo not shown) [Example 144, 2-Methyl-thiophene-3-carboxylic acid {4-[4-(diethylcarbamoyl-phenyl-methyl)-piperidin-1-yl]-3-fluoro-phenyl}-amide]	100	–
CCN(CC)C(=O)C(c1ccccc1)C1CCN(c2ccc(NC(=O)c3cccn3C)cc2F)CC1 (stereo not shown) [Example 145, 1-Methyl-1H-pyrrole-2-carboxylic acid {4-[4-(diethylcarbamoyl-phenyl-methyl)-piperidin-1-yl]-3-fluoro-phenyl}-amide]	100	–
CCC(CC)C(=O)Nc1ccc(N2CCN(C(C(=O)OC)c3cc(F)cc(F)c3)CC2)c(F)c1 (stereo not shown) [Example 146, (3,5-Difluoro-phenyl)-{4-[4-(2-ethyl-butyrylamino)-2-fluoro-phenyl]-piperazin-1-yl}-acetic acid methyl ester]	115	–
CCNC(=O)C(c1ccccc1)C1CCN(c2ccc(NC(=O)C3(C)CCCCC3)cc2C#N)CC1 (stereo not shown) [Example 147, 1-Methyl-cyclohexanecarboxylic acid {3-cyano-4-[4-(ethylcarbamoyl-phenyl-methyl)-piperidin-1-yl]-phenyl}-amide]	100	–
CCNC(=O)C(c1ccccc1)C1CCN(c2ccc(NC(=O)[C@@H]3CCOC3)cc2C#N)CC1 (stereo partly drawn) [Example 148, (R)-Tetrahydro-furan-3-carboxylic acid {3-cyano-4-[4-(ethylcarbamoyl-phenyl-methyl)-piperidin-1-yl]-phenyl}-amide]	120	–
CCN(CC)C(=O)C(c1ccccc1)C1CCN(c2ccc(NC(=O)c3ccccc3SC)cc2F)CC1 (stereo not shown) [Example 149, N-{4-[4-(Diethylcarbamoyl-phenyl-methyl)-piperidin-1-yl]-3-fluoro-phenyl}-2-methylsulfanyl-benzamide]	110	–
O=C(Nc1ccc(N2CCN(C(C(=O)N3CCC(F)(F)C3)c3ccccc3)CC2)c(F)c1)[C@H]1CCOC1 (stereo partly drawn) [Example 151, (S)-Tetrahydro-furan-3-carboxylic acid (4-{4-[2-(3,3-difluoro-pyrrolidin-1-yl)-2-oxo-1-phenyl-ethyl]-piperazin-1-yl}-3-fluoro-phenyl)-amide]	140	–
CCN(CC)C(=O)C(c1ccccc1)N1CCN(c2ccc(NC(=O)C3C(C)(C)C3(C)C)cc2F)CC1 (stereo not shown) [Example 152, 2,2,3,3-Tetramethyl-cyclopropanecarboxylic acid {4-[4-(diethylcarbamoyl-phenyl-methyl)-piperazin-1-yl]-3-fluoro-phenyl}-amide]	170	–
CCC(CC)C(=O)Nc1ccc(N2CCN(C(C(=O)N(CC)CC)c3cc(F)ccc3Br)CC2)c(F)c1 (stereo not shown) [Example 153, N-(4-{4-[(2-Bromo-5-fluoro-phenyl)-diethylcarbamoyl-methyl]-piperazin-1-yl}-3-fluoro-phenyl)-2-ethyl-butyramide]	142	–
CCN(CC)C(=O)C(c1ccccc1)C1CCN(c2ccc(NC(=O)Cc3cc(C)ccc3C)cc2F)CC1 (stereo not shown) [Example 154, 2-(1-{4-[2-(2,5-Dimethyl-phenyl)-acetylamino]-2-fluoro-phenyl}-piperidin-4-yl)-N,N-diethyl-2-phenyl-acetamide]	220	–
CCC(CC)C(=O)Nc1ccc(N2CCN(C(C(=O)N(CC)CC)c3ccc(F)cc3)CC2)c(F)c1 (stereo not shown) [Example 155, N-(4-{4-[Diethylcarbamoyl-(4-fluoro-phenyl)-methyl]-piperazin-1-yl}-3-fluoro-phenyl)-2-ethyl-butyramide]	200	–
CCN(CC)C(=O)C(c1ccccc1)C1CCN(c2ccc(NC(=O)Cc3c(F)cccc3F)cc2F)CC1 (stereo not shown) [Example 156, 2-(1-{4-[2-(2,6-Difluoro-phenyl)-acetylamino]-2-fluoro-phenyl}-piperidin-4-yl)-N,N-diethyl-2-phenyl-acetamide]	230	–
CCN(CC)C(=O)C(c1ccccc1)C1CCN(c2ccc(NC(=O)c3cc(C)ccc3C)cc2F)CC1 (stereo not shown) [Example 157, N-{4-[4-(Diethylcarbamoyl-phenyl-methyl)-piperidin-1-yl]-3-fluoro-phenyl}-2,5-dimethyl-benzamide]	235	–

SMILES	IC50 (Table 1, [125I]PYY 80 pM) [nM]	IC50 (Table 2, [125I]PYY 80 pM) [nM]
CCC(CC)C(=O)Nc1ccc(N2CCN(C(C(=O)N3CCC(F)(F)CC3)c3ccc(F)cc3)CC2)c(F)c1 (stereo not shown) [Example 158, N-(4-{4-[2-(4,4-Difluoro-piperidin-1-yl)-1-(4-fluoro-phenyl)-2-oxo-ethyl]-piperazin-1-yl}-3-fluoro-phenyl)-2-ethyl-butyramide]	240	–
CCNC(=O)C(c1cccc(F)c1)N1CCN(c2ccc(NC(=O)C(CC)CC)cc2F)CC1 (stereo not shown) [Example 159, 2-Ethyl-N-(4-{4-[ethylcarbamoyl-(3-fluoro-phenyl)-methyl]-piperazin-1-yl}-3-fluoro-phenyl)-butyramide]	250	–
CCN(CC)C(=O)C(c1ccccc1)C1CCN(c2ccc(NC(=O)c3ccccc3N)cc2F)CC1 (stereo not shown) [Example 160, 2-Amino-N-{4-[4-(diethylcarbamoyl-phenyl-methyl)-piperidin-1-yl]-3-fluoro-phenyl}-benzamide]	260	–
CCN(CC)C(=O)C(c1ccccc1)N1CCN(c2ccc(NC(=O)CC3CC3)cc2F)CC1 (stereo not shown) [Example 161, 2-{4-[4-(2-Cyclopropyl-acetylamino)-2-fluoro-phenyl]-piperazin-1-yl}-N,N-diethyl-2-phenyl-acetamide]	300	–
CCN(CC)C(=O)C(c1ccccc1)N1CCN(c2ccc(NC(=O)Cc3ccccc3OC)cc2F)CC1 (stereo not shown) [Example 162, N,N-Diethyl-2-(4-{2-fluoro-4-[2-(2-methoxy-phenyl)-acetylamino]-phenyl}-piperazin-1-yl)-2-phenyl-acetamide]	300	–
CCN(CC)C(=O)C(c1ccccc1)C1CCN(c2ccc(NC(=O)c3cnoc3C)cc2F)CC1 (stereo not shown) [Example 163, 5-Methyl-isoxazole-4-carboxylic acid {4-[4-(diethylcarbamoyl-phenyl-methyl)-piperidin-1-yl]-3-fluoro-phenyl}-amide]	300	–
CCCS(=O)(=O)Nc1ccc(N2CCN(C(C(=O)N(CC)CC)c3ccccc3)CC2)c(F)c1 (stereo not shown) [Example 165, N,N-Diethyl-2-{4-[2-fluoro-4-(propane-1-sulfonylamino)-phenyl]-piperazin-1-yl}-2-phenyl-acetamide]	–	1100
CCCS(=O)(=O)N(c1ccc(N2CCN(C(C(=O)N(CC)CC)c3ccccc3)CC2)c(F)c1)S(=O)(=O)CCC (stereo not shown) [Example 166, N-{4-[4-(Diethylcarbamoyl-phenyl-methyl)-piperazin-1-yl]-3-fluoro-phenyl}-N-dipropanesulfonanilide]	–	560
CCN(CC)C(=O)C(c1ccccc1)N1CCN(c2ccc(C(=O)C3CCCC3)cc2F)CC1 (stereo not shown) [Example 167, 2-[4-(4-Cyclopentanecarbonyl-2-fluoro-phenyl)-piperazin-1-yl]-N,N-diethyl-2-phenyl-acetamide]	–	3300
CCN(CC)C(=O)C(c1ccccc1)N1CCN(c2ccc(/C(=N/O)C3CCCC3)cc2F)CC1 (stereo not shown) [Example 168, 2-{4-[4-(Cyclopentyl-hydroxyimino-methyl)-2-fluoro-phenyl]-piperazin-1-yl}-N,N-diethyl-2-phenyl-acetamide]	–	740
CCC(C)C(=O)c1ccc(N2CCN(C(C(=O)N(CC)CC)c3ccccc3)CC2)c(F)c1 (stereo not shown) [Example 169, N,N-Diethyl-2-{4-[2-fluoro-4-(2-methyl-butyryl)-phenyl]-piperazin-1-yl}-2-phenyl-acetamide]	–	410
CCC(CC)C(=O)NCc1ccc(N2CCN(C(C(=O)N(CC)CC)c3ccccc3)CC2)c(F)c1 (stereo not shown) [Example 170, N-{4-[4-(Diethylcarbamoyl-phenyl-methyl)-piperazin-1-yl]-3-fluoro-benzyl}-2-ethyl-butyramide]	–	260
CCOC(=O)C(c1ccccc1)N1CCN(c2ccc(N3CCN(C(CC)CC)S3(=O)=O)cc2F)CC1 (stereo not shown) [Example 171, {4-[2-Fluoro-4-(5-(3-pentyl)-1,2,5-thiadiazolidine-2-yl,1,1-dioxide)-phenyl]-piperazin-1-yl}-phenyl-acetic acid ethyl ester]	–	270
CCCNS(=O)(=O)N(CCC)c1ccc(N2CCN(C(C(=O)N(CC)CC)c3ccccc3)CC2)c(F)c1 (stereo not shown) [Example 172, 2-{4-[4-(1,3-Dipropyl-sulfamoyl)-2-fluoro-phenyl]-piperazin-1-yl}-N,N-diethyl-2-phenyl-acetamide]	–	520
CCN(CC)C(=O)C(c1ccccc1)N1CCN(c2ccc(N3CCN(C(=O)OC)S3(=O)=O)cc2F)CC1 (stereo not shown) [Example 173, 3-{4-[4-(Diethylcarbamoyl-phenyl-methyl)-piperazin-1-yl]-3-fluoro-phenyl}-1,2,5-thiadiazolidine, 1,1-dioxide-2-carboxylic acid methyl ester]	–	590
